Assay results published in patent US9622472B2, “Molecules that induce disease resistance in plants” (The Regents of the University of California, priority 2013, dated 2017).

How the values were obtained:
[1] = system: virulent Peronospora isolate Noco2; experiment: Noco2 spore inhibition assay in soil-grown Col-0 seedlings; format: in vivo, Hyaloperonospora arabidopsidis (Peronospora)
Description: FIG. 1. Phenyl-imino-methyl-phenol derivatives (PMPs) constitute a large class of new synthetic elicitors. A: Structures of 20 PMP derivatives that were identified by high throughput screening as able to promote expression with the CaBP22 reporter assay. B. CMP199 was further analyzed in the Noco2 spore inhibition assay. Three-week-old soil-grown Col-0 seedlings were spray-infected 24 h after treating with varying concentrations of each synthetic elicitor and then assayed at 7 dpi for spore growth. 100% inhibition=0 spores. The assay was repeated three times with similar results, and the average of those three replicates is shown. DCA=3-5-dicholoroanthranlilic acid; HTC=2-(5-bromo-2-hydroxy-phenyl)-thiazolidine-4-carboxylic acid.
CMP199 (FIG. 1A) was selected for further study to determine whether CMP199 could induce pathogen resistance in soil-grown plants. […] To determine if CMP199 differs from other synthetic elicitors, Col-0 seedlings were treated with DCA or HTC at the indicated concentrations and compared.

[2] = system: pathogen-responsive CaBP22^−333::GUS reporter gene; details: transgenic Arabidopsis; reported in Knoth et al. (2009); cited from earlier work
[3] = system: Hyaloperonospora arabidopsidis (Peronospora); details: Arabidopsis; Knoth et al. (2009); cited from earlier work
Pseudomonas syringae = details: Arabidopsis; Knoth et al. (2009); cited from earlier work

| Compound | induction of disease resistance ([1]; A. thaliana) | inhibition of Noco2 spores, concentration compared with other synthetic elicitors ([1]; Col-0 seedlings, spray-infected 24 h after treating, assayed at 7 dpi, FIG. 1B) | concentration giving significantly reduced numbers of Noco2 spores ([1]; Col-0 sprayed prior to infection, spores 7 days post infection) [µM] | induction of pCaBP22^−333::GUS reporter gene [2] | disease resistance triggered [3] | disease resistance triggered (Pseudomonas syringae) |
| --- | --- | --- | --- | --- | --- | --- |
| COc1cccc(N=Cc2cc(Cl)cc(Cl)c2O)c1 [CMP199, 2,4-dichloro-6-[((3-methoxy-phenyl)imino)methyl]-phenol] | able to induce disease resistance in A. thaliana at very low concentration | much lower concentration than DCA or HTC | ≤ 1 | – | – | – |
| Nc1c(Cl)cc(Cl)cc1C(=O)O [DCA, 3-5-dicholoroanthranlilic acid] | – | – | – | induce | fast, strong and transient disease resistance | fast, strong and transient disease resistance |
